The target of experiment [1] is T1, Estrogen receptor beta (Homo sapiens, UniProt Q92731).
Description: Binding affinity towards human recombinant Estrogen receptor beta was determined
Experiment [2] concerns the target T2, Estrogen receptor (Homo sapiens, UniProt P03372).
T2 sequence (P03372 whole entry): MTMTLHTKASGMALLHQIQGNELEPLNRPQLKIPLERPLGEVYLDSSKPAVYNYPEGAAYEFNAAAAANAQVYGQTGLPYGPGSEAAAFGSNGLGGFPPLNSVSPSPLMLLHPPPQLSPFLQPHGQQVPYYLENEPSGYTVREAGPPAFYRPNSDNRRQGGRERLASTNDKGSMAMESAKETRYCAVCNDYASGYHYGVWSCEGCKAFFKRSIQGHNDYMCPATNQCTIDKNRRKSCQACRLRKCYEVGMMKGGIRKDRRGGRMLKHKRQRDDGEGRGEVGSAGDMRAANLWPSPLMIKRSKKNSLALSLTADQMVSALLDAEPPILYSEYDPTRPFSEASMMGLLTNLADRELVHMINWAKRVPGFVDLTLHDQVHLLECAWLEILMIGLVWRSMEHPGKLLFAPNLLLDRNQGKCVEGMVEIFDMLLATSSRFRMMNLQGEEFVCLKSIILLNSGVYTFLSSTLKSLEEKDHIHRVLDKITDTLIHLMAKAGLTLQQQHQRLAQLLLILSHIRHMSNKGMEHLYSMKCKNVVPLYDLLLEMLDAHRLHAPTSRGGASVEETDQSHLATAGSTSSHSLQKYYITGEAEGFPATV
Description: Binding affinity towards human recombinant Estrogen receptor alpha was determined

For experiment [3], the target named is T2, Estrogen receptor. As to the kind of experiment: In vitro binding affinity for Estrogen receptor alpha in HEK293 cells. In kind it is cell-based.
The target of experiment [4] is T3, Estrogen receptor (Rattus norvegicus) (UniProt P06211+Q62986). To be noted: at 1 mg/kg.
Description: Anti-uterotrophic activity in rats after 1 mg/kg subcutaneous dose for 3 days without estradiol
In experiment [5] the target is T3, Estrogen receptor (Rattus norvegicus). Particulars: at 1 mg/kg. This is another data set of the same source.
Description: (§1) Anti-uterotrophic activity in rats after 1 mg/kg subcutaneous dose for 3 days with estradiol
Experiment [6] deals with T1, Estrogen receptor beta. In words: biochemical.
Description: In vitro binding affinity for Estrogen receptor beta in HEK293 cells
The target of experiment [7] is T3, Estrogen receptor (Rattus norvegicus). Particulars: Uterus, at 1 mg/kg.
Description: Uterotrophic activity in rats after 1 mg/kg peroral dose for 3 days without estradiol
Experiment [8] has the same target. To be noted: at 1 mg/kg. The source holds these as a separate data set.
Description: as §1
The target is the same in experiment [9]. Particulars: Uterus, at 0.3 mg/kg.
Description: Uterotrophic activity in rats after 0.3 mg/kg peroral dose for 3 days with estradiol

As a reminder, the IC50 is the midpoint of a concentration-inhibition curve. Read a high IC50 as weaker potency in that assay. The term inhibition denotes the drop in the measured response relative to a control, in per cent. The low end stands for little suppression, the high end for strong suppression.

T1 sequence (Q92731 whole entry): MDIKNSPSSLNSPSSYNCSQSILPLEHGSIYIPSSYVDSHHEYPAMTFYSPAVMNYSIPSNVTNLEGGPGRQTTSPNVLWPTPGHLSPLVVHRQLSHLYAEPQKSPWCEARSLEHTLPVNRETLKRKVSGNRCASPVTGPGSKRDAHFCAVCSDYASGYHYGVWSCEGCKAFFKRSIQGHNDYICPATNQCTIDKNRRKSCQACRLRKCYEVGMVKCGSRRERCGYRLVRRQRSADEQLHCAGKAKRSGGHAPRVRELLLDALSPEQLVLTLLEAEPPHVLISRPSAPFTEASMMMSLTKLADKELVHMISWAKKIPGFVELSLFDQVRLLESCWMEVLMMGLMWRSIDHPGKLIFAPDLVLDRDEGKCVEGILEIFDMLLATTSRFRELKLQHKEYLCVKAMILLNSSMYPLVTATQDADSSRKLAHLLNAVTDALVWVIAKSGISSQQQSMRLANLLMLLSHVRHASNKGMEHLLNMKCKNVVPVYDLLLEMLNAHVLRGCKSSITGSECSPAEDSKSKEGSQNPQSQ

As for `O=C1c2ccc(O)cc2O[C@H](c2ccc(OCCN3CCCCC3)cc2)[C@@H]1c1ccc(O)cc1`, the IC50 is 2730 nM against Estrogen receptor beta [1] and 39 nM against Estrogen receptor [2].

`Oc1ccc(C2=C(c3ccc(OCCN4CCCCC4)cc3)Oc3ccc(O)cc3S2)cc1`: the IC50 on Estrogen receptor [3] came out at 5.1 nM; at Estrogen receptor beta [1], 5.1 nM; on Estrogen receptor [2], 1.6 nM; on Estrogen receptor beta [6], 159 nM. Moreover, the Control in experiment [4] was determined as 45%. Besides, the inhibition in experiment [5] amounted to 55%.

On to `Oc1ccc([C@@H]2Sc3ccc(O)cc3O[C@@H]2c2ccc(OCCN3CCCCC3)cc2)cc1`, for which the IC50 on Estrogen receptor beta [1] stood at 45 nM; against Estrogen receptor [2] it was 1.6 nM.

On to `Oc1ccc([C@@H]2Sc3cc(O)ccc3O[C@@H]2c2ccc(OCCN3CCCCC3)cc2)cc1` (racemic), for which the Control in [4] stood at 20%. This molecule displayed an inhibition in experiment [5] of 18%.

As for `O=S1(=O)c2cc(O)ccc2O[C@H](c2ccc(OCCN3CCCCC3)cc2)[C@@H]1c1ccc(O)cc1`, the figures for the IC50 on Estrogen receptor beta [1] and at Estrogen receptor [2] were 5950 nM and 1090 nM, respectively.

In experiment [7], `Oc1ccc([C@H]2Sc3cc(O)ccc3O[C@H]2c2ccc(OCCN3CCCCC3)cc2)cc1` came in with a Control of 9%. For the same molecule, the inhibition in [8] was found to be 0.4%; in [9] it was 11.4%.

In the case of `Oc1ccc([C@@H]2Sc3cc(O)ccc3O[C@H]2c2ccc(OCCN3CCCCC3)cc2)cc1` (racemic), the Control in experiment [4] is 5%. The molecule further gave an inhibition in [5] of 77%.

Consider `Oc1ccc([C@@H]2Sc3ccccc3O[C@@H]2c2ccc(OCCN3CCCCC3)cc2)cc1`, for which the results for the IC50 at Estrogen receptor beta [1] and at Estrogen receptor [2] were 70 nM and 10 nM, respectively.

In experiment [5], `Oc1ccc([C@@H]2Sc3cc(O)ccc3O[C@@H]2c2ccc(OCCN3CCCCC3)cc2)cc1` (stereo in doubt; 4-L) registered an inhibition of 16%.

For the molecule `Oc1ccc2c(c1)S[C@@H](c1ccccc1)[C@@H](c1ccc(OCCN3CCCCC3)cc1)O2`, the IC50 came to 183 nM against Estrogen receptor beta [1] and 6.2 nM at Estrogen receptor [2].

`[O-][S+]1c2cc(O)ccc2O[C@H](c2ccc(OCCN3CCCCC3)cc2)[C@@H]1c1ccc(O)cc1` (stereo partly specified): the IC50 at Estrogen receptor beta [1] and against Estrogen receptor [2] was over 100000 nM throughout.

Source of the values: ChEMBL document CHEMBL1149328, “Estrogen receptor ligands. II. Discovery of benzoxathiins as potent, selective estrogen receptor alpha modulators” (J Med Chem, 2004).
